Measured values reported in patent EP4755886A1 (Chengdu Chipscreen Pharmaceutical Ltd., priority 2023, dated 2025).

What was measured:
wild-type HCT-116 cells = assay: Cell proliferation (MTS), wild-type HCT-116; assay type: cell-based; conditions: Homo sapiens, 240 h; wild-type HCT-116, 10 days with compound, MTS reading; read-out: IC50 HCT116 WT
Experimental: MTAP^-/- HCT-116 and wild-type HCT-116 cell strains were cultured in complete medium McCoy's 5A (Gibco, 16600082)/10% FBS (Gibco, 10099141C)/1% p/s (Gibco, 15140122) to evaluate the enhanced inhibitory effect of the compounds against the proliferation selectivity of MTAP^-/- HCT-116 cells. On day 0, MTAP^-/- HCT-116 cells or wild-type HCT-116 cells were added to a 96-well cell culture plate (Corning, 3599) at 100 cells/well, and the plate was incubated in an incubator at 37 °C with 5% CO2. The compound was diluted in a 3-fold gradient with DMSO (Sigma, D5879) (initial concentration: 20 µM, 3-fold dilution, 8 concentration points in total). On day 1, the compound was diluted to multiple concentration points, and the cells were treated separately and incubated in the incubator at 37 °C with 5% CO2 for another 10 days. On Day 11, 20 µL of MTS (CellTiter 96® AQueous One Solution Cell Proliferation Assay) (Promega, G3581) was added to each well. […] In the formula, Y represents the inhibition rate, X represents the logarithm of the compound concentration, Top represents the maximum response (the inhibition rate at the maximum compound concentration), Bottom represents the baseline response (the inhibition rate where the compound concentration was 0), Hill Slope represents the slope of the IC50 curve, and IC50 represents the half maximal inhibitory concentration. Table 1. IC50 (µM)

MTAP^-/- HCT-116 cells = assay: Cell proliferation (MTS), MTAP-/- HCT-116; assay type: cell-based, human; conditions: for Selectivity: HCT116 WT IC50 relative to HCT116 MTAP-/- IC50; for IC50: Homo sapiens, 240 h, MTAP-/- HCT-116, 10 days with compound, MTS reading, read-out: IC50 HCT116 MTAP-/-
Method in brief: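 MTAP-/- (CRISPR/Cas9 biallelic knockout) or wild-type HCT-116 cells seeded at 100 cells/well, treated next day with 8-point 3-fold dilutions (top 20 µM) for 10 days at 37 °C, 5% CO2. Viability read by MTS; IC50 from four-parameter logistic fit of inhibition rate vs log concentration.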

| Structure (SMILES) | IC50 (wild-type HCT-116 cells) | IC50 (MTAP^-/- HCT-116 cells) | Selectivity (MTAP^-/- HCT-116 cells) |
| --- | --- | --- | --- |
| CN(C(=O)c1cc2c(cc1F)nc(N)c1cnn(C)c12)C1COc2cc(C#Cc3cnn(C4CC4)c3)ccc21 (stereo not drawn) [Compound 12, 4-amino-N-(6-((1-cyclopropyl-1H-pyrazol-4-yl)ethynyl)-2,3-dihydrobenzofuran-3-yl)-7-fluoro-N,1-dimethyl-1H-pyrazolo[4,3-c]quinoline-8-carboxamide] | 650 nM | 8 nM | 81 |
| Cc1c(C#Cc2ccc3c(c2)OCC3N(C)C(=O)c2cc3c(cc2Cl)nc(N)c2cnn(C)c23)cnn1C (stereo not drawn) [Compound 22, 4-amino-7-chloro-N-(6-((1,5-dimethyl-1H-pyrazol-4-yl)ethynyl)-2,3-dihydrobenzofuran-3-yl)-N,1-dimethyl-1H-pyrazolo[4,3-c]quinoline-8-carboxamide] | 95 nM | 1.9 nM | 50 |
| CN(C(=O)c1cc2c(cc1Cl)nc(N)c1cnn(C)c12)C1COc2cc(C#Cc3ccn(C)n3)ccc21 (stereo not drawn) [Compound 18, 4-amino-7-chloro-N,1-dimethyl-N-(6-((1-methyl-1H-pyrazol-3-yl)ethynyl)-2,3-dihydrobenzofuran-3-yl)-1H-pyrazolo[4,3-c]quinoline-8-carboxamide] | 159 nM | 3 nM | 53 |
| CN1CC=C(C#Cc2ccc3c(c2)OCC3N(C)C(=O)c2ccc3nc(N)c4cnn(C)c4c3c2)CC1 (stereo not drawn) [Compound 6, 4-amino-N,1-dimethyl-N-(6-((1-methyl-1,2,3,6-tetrahydropyridin-4-yl)ethynyl)-2,3-dihydrobenzofuran-3-yl)-1H-pyrazolo[4,3-c]quinoline-8-carboxamide] | 2780 nM | 10.8 nM | 257 |
| CN(C(=O)c1cc2c3c(c(N)nc2cc1Cl)COC3)C1COCc2cc(C#Cc3cnn(C4CC4)c3)ccc21 (stereo not drawn) [Compound 87, 4-amino-7-chloro-N-(7-((1-cyclopropyl-1H-pyrazol-4-yl)ethynyl)isochroman-4-yl) -N-methyl-1,3-dihydrofuro[3,4-c]quinoline-8-carboxamide] | 504 nM | 9 nM | 56 |
| CN(C(=O)c1cc2c(cc1F)nc(N)c1cnn(C)c12)C1COc2cc(C#Cc3cnccc3C(F)F)ccc21 (stereo not drawn) [Compound 42, 4-amino-N-(6-((4-(difluoromethyl)pyridin-3-yl)ethynyl)-2,3-dihydrobenzofuran-3-yl)-7-fluoro-N,1-dimethyl-1H-pyrazolo[4,3-c]quinoline-8-carboxamide] | 785 nM | 18.5 nM | 42 |
| Cc1cc2nc(N)c3cnn(C)c3c2cc1C(=O)N(C)C1COc2cc(C#Cc3cnn(C)c3)ccc21 (stereo not drawn) [Compound 10, 4-amino-N,1,7-trimethyl-N-(6-((1-methyl-1H-pyrazol-4-yl)ethynyl)-2,3-dihydrobenzofuran-3-yl)-1H-pyrazolo[4,3-c]quinoline-8-carboxamide] | 162 nM | 2 nM | 81 |
| CN(C(=O)c1cc2c(cc1Cl)nc(N)c1cnn(C)c12)C1COc2cc(C#Cc3cnn(C4CC4)c3)ccc21 (stereo not drawn) [Compound 8, 4-amino-7-chloro-N-(6-((1-cyclopropyl-1H-pyrazol-4-yl)ethynyl)-2,3-dihydrobenzofuran-3-yl)-N,1-dimethyl-1H-pyrazolo[4,3-c]quinoline-8-carboxamide] | 141 nM | 3 nM | 47 |
| CN(C(=O)c1cc2c(cc1F)nc(N)c1cnn(C)c12)C1COc2cc(C#Cc3cnn(C)c3)ccc21 (stereo not drawn) [Compound 5, 4-amino-7-fluoro-N,1-dimethyl-N-(6-((1-methyl-1H-pyrazol-4-yl)ethynyl)-2,3-dihydrobenzofuran-3-yl)-1H-pyrazolo[4,3-c]quinoline-8-carboxamide] | 584 nM | 6 nM | 97 |
| CC(C)n1cc(C#Cc2ccc3c(c2)OCC3N(C)C(=O)c2ccc3nc(N)c4cnn(C)c4c3c2)cn1 (stereo not drawn) [Compound 19, 4-amino-N-(6-((1-isopropyl-1H-pyrazol-4-yl)ethynyl)-2,3-dihydrobenzofuran-3-yl)-N,1-dimethyl-1H-pyrazolo[4,3-c]quinoline-8-carboxamide] | 986 nM | 9.7 nM | 102 |
| CN(C(=O)c1ccc2nc(N)c3cnn(C)c3c2c1)C1COc2cc(C#Cc3cn(C)nc3Cl)ccc21 (stereo not drawn) [Compound 34, 4-amino-N-(6-((3-chloro-1-methyl-1H-pyrazol-4-yl)ethynyl)-2,3-dihydrobenzofuran-3-yl)-N,1-dimethyl-1H-pyrazolo[4,3-c]quinoline-8-carboxamide] | 1140 nM | 7.6 nM | 150 |
| Cc1cc2nc(N)c3cnn(C)c3c2cc1C(=O)N(C)C1COc2cc(C#Cc3cnn(C4CC4)c3)ccc21 (stereo not drawn) [Compound 11, 4-amino-N-(6-((1-cyclopropyl-1H-pyrazol-4-yl)ethynyl)-2,3-dihydrobenzofuran-3-yl)-N,1,7-trimethyl-1H-pyrazolo[4,3-c]quinoline-8-carboxamide] | 185 nM | 3 nM | 62 |

Further lines, with some results ahead:

| IC50 (wild-type HCT-116 cells) | IC50 (MTAP^-/- HCT-116 cells) | Structure (SMILES) | Selectivity (MTAP^-/- HCT-116 cells) |
| --- | --- | --- | --- |
| 598 nM | 5.2 nM | Cc1cncc(C#Cc2ccc3c(c2)OC[C@H]3N(C)C(=O)c2cc3c(cc2F)nc(N)c2cnn(C)c23)c1 [Compound 47A, (S)-4-amino-7-fluoro-N,1-dimethyl-N-(6-((5-methylpyridin-3-yl)ethynyl)-2,3-dihydrobenzofuran-3-yl)-1H-pyrazolo[4,3-c]quinoline-8-carboxamide] | 115 |
| 2220 nM | 9.5 nM | Cc1ccc(C#Cc2ccc3c(c2)OC[C@H]3N(C)C(=O)c2cc3c4c(c(N)nc3cc2Cl)COC4)cn1 [Compound 58A, (S)-4-amino-7-chloro-N-methyl-N-(6-((6-methylpyridin-3-yl)ethynyl)-2,3-dihydrobenzofuran-3-yl)-1,3-dihydrofuro[3,4-c]quinoline-8-carboxamide] | 234 |
| 233 nM | 2.7 nM | CN(C(=O)c1cc2c(cc1F)nc(N)c1cnn(C)c12)[C@@H]1COc2cc(C#Cc3ccn(C)n3)ccc21 [Compound 21A, (S)-4-amino-7-fluoro-N,1-dimethyl-N-(6-((1-methyl-1H-pyrazol-3-yl)ethynyl)-2,3-dihydrobenzofuran-3-yl)-1H-pyrazolo[4,3-c]quinoline-8-carboxamide] | 86.3 |
| 312 nM | 6.6 nM | CN(C(=O)c1cc2c3c(c(N)nc2cc1Cl)COC3)[C@@H]1COc2cc(C#Cc3cn(C)nc3Cl)ccc21 [Compound 68A, (S)-4-amino-7-chloro-N-(6-((3-chloro-1-methyl-1H-pyrazol-4-yl)ethynyl)-2,3-dihydrobenzofuran-3-yl)-N-methyl-1,3-dihydrofuro[3,4-c]quinoline-8-carboxamide] | 47 |
| 28 nM | 0.5 nM | Cc1cc2nc(N)c3cnn(C)c3c2cc1C(=O)N(C)[C@@H]1COc2cc(C#Cc3cnn(C)c3)ccc21 [Compound 10A, (S)-4-amino-N,1,7-trimethyl-N-(6-((1-methyl-1H-pyrazol-4-yl)ethynyl)-2,3-dihydrobenzofuran-3-yl)-1H-pyrazolo[4,3-c]quinoline-8-carboxamide] | 56 |
| 167 nM | 3 nM | CN(C(=O)c1cc2c3c(c(N)nc2cc1Cl)COC3)[C@@H]1COc2cc(C#Cc3cnc4cnn(C)c4c3)ccc21 [Compound 76A, (S)-4-amino-7-chloro-N-methyl-N-(6-((1-methyl-1H-pyrazolo[4,3-b]pyridin-6-yl)ethynyl)-2,3-dihydrobenzofuran-3-yl)-1,3-dihydrofuro[3,4-c]quinoline-8-carboxamide] | 56 |
| 192 nM | 3.3 nM | CN(C(=O)c1ccc2nc(N)c3cnn(C)c3c2c1)[C@@H]1COc2cc(C#Cc3cn(C)nc3C(F)(F)F)ccc21 [Compound 31A, (S)-4-amino-N,1-dimethyl-N-(6-((1-methyl-3-(trifluoromethyl)-1H-pyrazol-4-yl)ethynyl)-2,3-dihydrobenzofuran-3-yl)-1H-pyrazolo[4,3-c]quinoline-8-carboxamide] | 58 |
| 213 nM | 4 nM | Cc1ncccc1C#Cc1ccc2c(c1)OC[C@H]2N(C)C(=O)c1cc2c(cc1F)nc(N)c1cnn(C)c12 [Compound 45A, (S)-4-amino-7-fluoro-N,1-dimethyl-N-(6-((2-methylpyridin-3-yl)ethynyl)-2,3-dihydrobenzofuran-3-yl)-1H-pyrazolo[4,3-c]quinoline-8-carboxamide] | 53 |
